The results in this text go back to ChEMBL document CHEMBL1201862, “PubChem BioAssay data set” (2004).

Test systems include SK-MEL-28; SK-MEL-5; LOX IMVI; NCI-H522; U-251; CCRF-CEM; IGROV-1; NCI-H23; MOLT-4; OVCAR-4; ACHN; CAKI-1; SK-MEL-2; RXF 393; HCT-15; K562.
Test in all cases: NCI-60 cell line screen, 48 h

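Where inhibition never reached the appropriate level, the endpoint shown equals the highest concentration tested. Otherwise, values were interpolated linearly from a five-concentration, 48-hour dose response in 96-well plates. GI50 = concentration required for 50% inhibition of growth.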 Active and inactive are the calls of the source. No stated cut-off is given here; in the data, active = GI50 up to about 1.1 µM and inactive = higher.

For the molecule `Nc1ccc(C(=O)NN2C(=O)C(Cl)C2c2cc(Br)cc(Br)c2O)cc1` (stereo not given), the GI50 in the test on SK-MEL-28 was 22.9 µM (inactive); with SK-MEL-5, 16.5 µM (inactive); with LOX IMVI, 8.85 µM (inactive); with NCI-H522 it was 6.75 µM (inactive); with U-251, 11.1 µM (inactive); in the test with CCRF-CEM, 5.53 µM (inactive). The GI50 in the test with IGROV-1 is 13.3 µM (inactive); with NCI-H23, 12.4 µM (inactive); in the test with MOLT-4, 4.89 µM (inactive); with OVCAR-4, 10.3 µM (inactive); in the test on ACHN it was 5.74 µM (inactive); in the test on CAKI-1, 3.66 µM (inactive). The GI50 with SK-MEL-2 is 10.6 µM (inactive); in the test on RXF 393 it was 13.3 µM (inactive); with HCT-15, 3.78 µM.

`O=c1oc2ccccc2c(O)c1C(C/C(CCN1CCCC1)=N\Nc1ccccc1)c1ccccc1` (stereo not given): the GI50 was 46.3 µM (inactive) with SK-MEL-5; 55.6 µM (inactive) with LOX IMVI; 51.2 µM (inactive) in the test with NCI-H522; 78.2 µM (inactive) in the test with U-251; 27.9 µM (inactive) with CCRF-CEM; > 100 µM (inactive) in the test on IGROV-1. In addition, the GI50 with NCI-H23 is 57.3 µM (inactive); with OVCAR-4, 97.7 µM (inactive); with K562, 46.2 µM (inactive); with ACHN, 54.8 µM (inactive); in the test on CAKI-1 it was > 100 µM (inactive); in the test on SK-MEL-2, 51.3 µM (inactive). Besides, the GI50 was 32.7 µM (inactive) in the test on RXF 393 and 52.2 µM in the test on HCT-15.

With `CC(C)CCCC(C)C1CCC2C3CC([N+](=O)[O-])=C4CC(O)CCC4(C)C3CCC12C` (stereo not given), the GI50 is 13.7 µM (inactive) in the test with SK-MEL-28; > 10 µM (inactive) in the test with SK-MEL-5; 19.6 µM (inactive) in the test on LOX IMVI; 17.5 µM (inactive) in the test on NCI-H522; 15.5 µM (inactive) in the test with U-251; 18.2 µM (inactive) in the test with CCRF-CEM. Also, the GI50 with IGROV-1 is 23.8 µM (inactive); in the test with NCI-H23 it was 22.7 µM (inactive); with MOLT-4, 24.2 µM (inactive); in the test on OVCAR-4, 21.4 µM (inactive); in the test with K562, 9.62 µM (inactive); with ACHN it was 43.4 µM (inactive). The GI50 in the test on CAKI-1 was 24.1 µM (inactive); with SK-MEL-2, 12.4 µM (inactive); in the test with RXF 393, 23.6 µM (inactive); with HCT-15, 17.3 µM.

`c1cnn(CN(Cn2cccn2)Cn2cccn2)c1`: the GI50 in the test on SK-MEL-28, in the test with SK-MEL-5, in the test on LOX IMVI, in the test on NCI-H522, in the test on U-251 and in the test on CCRF-CEM was > 100 µM (inactive) each time. For the same molecule, the GI50 with NCI-H23, in the test with MOLT-4, in the test with OVCAR-4, in the test on K562, in the test on ACHN and in the test on CAKI-1 was > 100 µM (inactive) in each case. For the same molecule, the GI50 is > 100 µM (inactive) in the test on SK-MEL-2, > 100 µM (inactive) in the test on RXF 393 and greater than 100 µM in the test on HCT-15.

As to `COc1ccc2c3c([nH]c2c1[N+](=O)[O-])C(C)N(C(=O)/C=C/c1ccccc1)CC3` (stereo not given), the GI50 in the test with SK-MEL-28 was 5.14 µM (inactive); with LOX IMVI, 2.92 µM (inactive); in the test on NCI-H522, 2.9 µM (inactive); with U-251 it was 7.01 µM (inactive); in the test with CCRF-CEM, 3.29 µM (inactive); with IGROV-1, > 100 µM (inactive). Also, the GI50 in the test with NCI-H23 is 25.5 µM (inactive); with MOLT-4, 2.64 µM (inactive); with OVCAR-4, 21.9 µM (inactive); in the test on K562, 2.88 µM (inactive); in the test on ACHN, 9.77 µM (inactive); in the test on CAKI-1, 3.66 µM (inactive). Besides, the GI50 in the test on SK-MEL-2 was 10.7 µM (inactive); with RXF 393 it was 3.27 µM (inactive); in the test on HCT-15 it was 5.71 µM.
